Test results published in US8592394B2, “Synthetic derivatives beta glycolipids and compositions thereof for the treatment of pathologic disorders” (Enzo Therapeutics, Inc., priority 2003, dated 2013).

Legend:
[1] = tested on: ConA induced hepatitis; assay: ConA induced hepatitis model: serum AST and ALT (liver injury); assay type: in vivo, mice; conditions: for enzyme levels (serum ALT and AST): Con A
Protocol: The effect of β-glycolipids on liver injury was evaluated by serum aspartyl transaminase (AST) and alanine aminotransferase (ALT) activities, which were determined by a clinical chemistry analyzer, Reflovet Plus (Roche Diagnostics, GmbH, Mannheim, Germany).
Con A was purchased from MP Biomedicals (Ohio, USA), was dissolved (0.5 mg, 20 mg/kg) in 200 μl of 50 mM Tris pH 7, 150 mM NaCl, 4 mM CaCl2, and was injected intravenously into mice (tail vain). Sera from individual mice were obtained 8 or 20 h after Con A injection. Serum activities of alanine aminotransferase (ALT) and aspartate aminotransferase (AST) were measured by an automatic analyzer.
To determine the clinical and immunological effect of the novel synthetic compounds of the invention, immune-mediated hepatitis was examined using the ConA induced hepatitis model. Therefore, the different synthetic and natural derivatives of β-glycolipids of Formula II, III and IV [AD2897 (ALIB-97), AD2898, and AD2899, respectively], were examined using seven groups of C57Bl/6 mice, as summarized by Table 1. Mice in experimental groups A-G (eight mice in each group) were injected with ConA. Group A mice were administered with 100 μl intraperitoneal injection of solvent only [15% Cremophor EL/15% ethanol/70% PBS](C:E). Mice in groups B, C, D, E, F, and G were administered with intraperitoneal injection of 1 μg or 10 μg of each of the three analogs Formulated in solvent as described in Experimental Procedures. Animals were sacrificed and examined.
In order to evaluate the potential beneficial effect of the three novel analogues of the invention on immune-mediated hepatitis, the effect of treatment with two concentrations of the three synthetic analogs on liver damage in all tested groups was assessed by determination of serum aspartate aminotransferase (AST), and alanine aminotransferase (ALT) levels.

[2] = tested on: mouse splenocytes; assay: In vitro stimulation of splenocytes: supernatant IFN-γ by ELISA; assay type: cell-based
Protocol: Splenocytes were prepared as described above and plated at 2.0×10^5 cells per well in 96-well plates in RPMI-1640 supplemented with 5% FCS, […] 2-mercaptoethanol, 2 mM glutamine, 1% sodium pyruvate, and antibiotics. Titrated volumes of GC, α-GalCer, and ALIB-97 diluted in DMSO were added at final concentrations of 100 ng, 1 μg, and 10 μg/ml. After 72 h of culture, 1 μCi of [^3H] thymidine (Amersham Biosciences) was added to each well, and the cells were cultured for an additional 16 to 18 h. Cells were harvested with a cell harvester (Tomtec, Orange, Conn.), and the uptake of radioactivity was measured with a β-plate reader. To evaluate IFN-γ secretion in vitro, supernatants were harvested after 90 h of culture with glycolipids and stored until the cytokine levels were measured by ELISA.

[3] = tested on: IL-4; assay: Serum IL-4 by ELISA in ConA induced hepatitis; assay type: in vivo, mice; conditions: intraperitoneal, data not shown
Protocol: (§1) Serum levels of IFN-γ, TGF-β, TNF-α IL-2, IL-4, IL-6, IL-10 and IL-12 were determined by “sandwich” ELISA, using commercial kits (Quantikine, R&D Systems, Minneapolis, Minn., USA). Serum insulin was also determined by “sandwich” ELISA too, using the commercial kit of Mercodia AB (Uppsala, Sweden) according to the manufacturer's instructions.

[4] = tested on: IL-10; assay: Serum IL-10 by ELISA in ConA induced hepatitis; assay type: in vivo, mice; conditions: for serum IL-10: intraperitoneal
Protocol: as §1

[5] = tested on: STAT6; assay: Immunoblot of liver lysates: STAT6; assay type: in vivo, mice; conditions: IP
Protocol: For ConA induced hepatitis experiments spleen and liver lysates were lysed in RIPA buffer containing 50 mM Tris, pH 7.4, 1% NP-40, 150 mM NaCl, 0.1% SDS, 0.5% sodium deoxycholate and protease inhibitors (5 μg/ml, Sigma), with protease and phosphatase (Sigma, Rehovot, Israel).
Lysates were centrifuged twice at 4° C. for 10 minutes in 14000 rpm. Equivalent amounts of lysates (15 μg/lane), determined by Bradford assay (Bio-Rad, Rehovot, Israel), were separated by sodium dodecyl sulfate polyacrylamide gel electrophoresis (SDS-PAGE) and transferred to nitrocellulose membranes.
For ConA induced hepatitis experiments proteins were detected with phospho-specific STAT1-Tyr701, STAT6-Tyr641, STAT1, and STAT6 antibodies from Cell Signaling. β-actin (abcam, UK) was used as a loading control.
Blots were developed with horseradish peroxidase-conjugated secondary antibodies (Jackson Laboratories Bar Harbor, Me.) and Western Blot-Luminol Reagent (Santa Cruz Biotechnology, CA, USA). Cell counting and western Blot quantification was performed using total Lab (Phoretix, USA) software.

[6] = B6 mice, intraperitoneal, Con A hepatitis, p<0.05
[7] = B6 mice, oral administration, 20 h after Con A injection, vs control p<0.01
[8] = ConA induced hepatitis, C57Bl/6 mice, intraperitoneal, 10 μg/mice

CCCCCCCCCCCCCC=CC(O)C(CO[C@@H]1OC(CO)[C@@H](O)C(O)C1O)NC(=S)NC12CC3CC(CC(C3)C1)C2 (stereo in doubt) [ALIB-97, N-adamantyl-N′-glucosylsphingosine thiourea]
reduction of serum ALT levels [1, 6]: more than 60% | reduction of serum AST levels [1, 6]: more than 60% | serum ALT levels [1, 7]: significantly reduced | serum AST levels [1, 7]: significantly reduced | enzyme levels (serum ALT and AST) ([1]; CD1d−/− mice, intraperitoneal): did not significantly alter | serum ALT levels [1, 8]: decreased | serum AST levels [1, 8]: decreased | liver damage induced by Con A treatment ([1]; Jα18 KO mice): exacerbated | enzyme levels (serum ALT and AST) ([1]; Jα18−/− mice, intraperitoneal): did not significantly alter | IFN-γ secretion ([2]; CD1d−/− splenocytes): absence | IFN-γ secretion ([2]; Jα18−/− splenocytes): absence | activation of IFN-γ secretion ([2]; mouse (B6) splenocytes, 100 ng): more than 9 fold | serum levels of IL-4 [3]: did not affect | serum IL-10 ([4]; B6 mice): increased | IL-10 serum levels ([4]; B6 mice, oral administration, after 20 hours): Decreased | serum IL-10 ([4]; CD1d−/− mice): increased | serum IL-10 ([4]; Jα18−/− mice): increased | STAT6 expression in the liver ([5]; B6 mice): slightly increased | STAT6 expression in the liver ([5]; CD1d−/− mice): markedly induced
